According to patent US5486624A (Pacific Corporation, priority 1994, dated 1996):

Columns and labels:
[1] = DPPH (diphenylpicrylhydrazyl) radical-scavenging test; settings: for IC50: DPPH 100 μM in ethanol, 37° C., 30 minutes, 515 nm, read-out: IC50 (concentration of test compound which scavenges the radical DPPH by 50%)
Protocol: Harmful radical-scavenging activities of the compounds of Examples 1 and 2 were compared with those of conventional anti-oxidants using a DPPH (diphenylpicrylhydrazyl) radical-scavenging test as follows:
DPPH was dissolved into ethanol to a concentration of 100 μM. A series of dilutions of compounds of Examples 1 and 2, vitamin C, vitamin E or hydroquinone were prepared. Ethanol and water were used to dilute the test compounds. As a control, a 1:1 mixture of ethanol and water was used. The series of dilutions of each test compound were mixed with 1,900 μl of DPPH solution and the dilution solvent was added to 2.0 ml. The resulting mixture was reacted in an incubator at 37° C. for 30 minutes. Absorbance was measured at 515 nm. The radical-scavenging activities of the compounds of Examples 1 and 2 and conventional anti-oxidants were calculated by the following equation: [formula]
IC50, i.e., the concentration of test compound which scavenge the radical, DPPH by 50% was calculated by the serial dilution method for each test compound.

[2] = tested on: human skin; assay: human body patch test (skin safety); assay type: in vivo; settings: for number of positive subjects/the number of total subjects: cream with 0.2 wt. % compound, 20 μl plaster, 30 volunteers; for safety to human skin (in words): overall conclusion
Protocol: In order to examine the safety of the compounds of Examples 1 and 2, a human body patch test was carried out as follows:
The brachium of thirty(30) healthy volunteers (15 females and 15 males) was thoroughly washed with 70% ethanol and applied with a plaster containing 20 μl of a conventional creamy preparation incorporating 0.2 wt. % of one of the compounds of Examples 1 and 2. The plaster was thoroughly bonded to the brachium using an adhesive tape. 48 hours later, the tape and chamber were removed, and the adherent site of the arm was wiped with a gauze to remove any remaining preparation. […] 48 hours later, the site was examined again.
The results are shown in terms of the number of positive subjects/the number of total subjects.

[3] = target: Tyrosinase; assay: Tyrosinase-inhibiting activity; assay type: biochemical, mushroom; settings: for IC50: mushroom tyrosinase, tyrosine, pH 6.8, 37° C., 10 minutes, 475 nm, read-out: IC50 (concentration of test compound which inhibits tyrosinase by 50%); for tyrosinase inhibition activity, fold higher than that of kojic acid: relative to kojic acid, in terms of IC50
Protocol: Tyrosinase, which was extracted from mushroom, was purchased from SIGMA. […] Ethanol and water were used to dilute the test compounds. As a control, 0.9 ml of a 1:1 mixture of ethanol and water was used. […] The test tube was quickly cooled in an ice water bath to stop the reaction, and absorbance was measured at 475 nm. […] IC50, i.e., the concentration of test compound which inhibits tyrosinase by 50% was calculated by serial dilution for each test compound.

[4] = tested on: tyrosinase; settings: prior art statement; cited from earlier work

IC50 [1] | IC50 [3] | tyrosinase inhibition activity, fold higher than that of kojic acid [3] | Molecule | radical-scavenging activity (in words) [1] | number of positive subjects/the number of total subjects ([2]; 48 hours later) | number of positive subjects/the number of total subjects ([2]; 96 hours later) | skin response in patch test (in words) ([2]; after 48 hours) | skin response in patch test (in words) ([2]; after 96 hours) | safety to human skin (in words) [2] | inhibition of tyrosinase (in words) [4]
12.3 µM | 4 µM | 20 fold | O=C(C=Cc1ccc(O)c(O)c1)OCc1cc(=O)c(O)co1 [Example 1, 2-(3,4-dihydroxycinnamoyl)oxymethyl-5-hydroxy-4H-pyran-4-one] | strong activity as a radical scavenger | 1/30 | 0/30 | weak positive response | disappeared | safe to human skin | –
– | – | – | O=c1cc(CO)occ1O [Kojic acid] | – | – | – | – | – | – | strongly inhibits the action of tyrosinase
70 µM | 4 µM | 20 fold | COc1cc(C=CC(=O)OCc2cc(=O)c(O)co2)ccc1O [Example 2, 2-(4-hydroxy-3-methoxycinnamoyl) oxymethyl-5-hydroxy-4H-pyran-4-one] | – | 1/30 | 0/30 | weak positive response | disappeared | safe to human skin | –
29.2 µM | – | – | O=C1O[C@H]([C@@H](O)CO)C(O)=C1O [Vitamin C, reference compound] | – | – | – | – | – | – | –
34.8 µM | – | – | tocopherol [Vitamin E, reference compound] | – | – | – | – | – | – | –

Molecule | IC50 [1] | IC50 [3] | tyrosinase inhibition activity, fold higher than that of kojic acid [3] | radical-scavenging activity (in words) [1] | number of positive subjects/the number of total subjects ([2]; 48 hours later) | number of positive subjects/the number of total subjects ([2]; 96 hours later) | skin response in patch test (in words) ([2]; after 48 hours) | skin response in patch test (in words) ([2]; after 96 hours) | safety to human skin (in words) [2] | inhibition of tyrosinase (in words) [4]
Oc1ccc(O)cc1 [Hydroquinone, hydroquinone, reference compound] | 25.4 µM | – | – | – | – | – | – | – | – | –
